Structures are written as SMILES. ≈ marks a conversion by molar mass, not a printed value. Where two headings read alike, the source gives them in different places.

These results are taken from patent US11807607B1, “Aminocarbazole compounds as antibacterial agents” (KING FAISAL UNIVERSITY, priority 2023, dated 2023).

In experiment [1] the test system is Mycobacterium tuberculosis H37Rv strain. As to the kind of experiment: Anti-tubercular alamar blue microplate MIC assay. Type of experiment: cell-based. The conditions noted are these: 168 h, M. tuberculosis H37Rv, 7 days at 37° C., read-out: anti-mycobacterial activity (MIC).
The target of a further experiment is T1, DNA gyrase from E. coli (Escherichia coli, UniProt P0AES4+P0AES6).
T1 construct: purchased Inspiralis
The experiment is described as follows: Inspiralis E. coli DNA gyrase inhibition assay. The format is biochemical.

Experiment [2] has as its system Gram-positive and Gram-negative bacterial strains, drug sensitive and drug resistant. As to the kind of experiment: In vitro antibacterial activity evaluation, whole strain panel.
Experiment [3] deals with Pseudomonas aeruginosa MTCC 741. As to the kind of experiment: Antibacterial MIC, CLSI M07-A10 dilution susceptibility test. Type of experiment: cell-based. The conditions noted are these: MTCC741.
The subject of experiment [4] is Klebsiella pneumonia MTCC 618. The description is as above. The format is cell-based. The conditions noted are these: Klebsiella pneumoniae, MTCC618.
The subject of experiment [5] is Enterococcus faecium ATCC 51559 (VRE resistant). The description is as above. Type of experiment: cell-based.
Experiment [6] deals with Staphylococcus aureus ATCC BAA-1556 (MERSA resistant). Described as above. The conditions noted are these: ATCCBAA1556. Type of experiment: cell-based.
For experiment [7], the system named is Enterococcus faecium ATCC 35667. Described as above. The format is cell-based. The note with it: ATCC35667.
Experiment [8] deals with Bacillus subtilis MTCC 441. Described as above. The format is cell-based. The conditions noted are these: MTCC441.
Experiment [9] relates to Escherichia coli MTCC 443. Described as above. Type of experiment: cell-based. The conditions noted are these: MTCC443.
Experiment [10] relates to Staphylococcus epidermidis. The experiment is described as above. The format is cell-based.
Experiment [11] relates to Staphylococcus aureus ATCC 29213. Described as above. The format is cell-based. The conditions noted are these: ATCC29213.

T1 sequence (P0AES4 whole entry, one chain of several): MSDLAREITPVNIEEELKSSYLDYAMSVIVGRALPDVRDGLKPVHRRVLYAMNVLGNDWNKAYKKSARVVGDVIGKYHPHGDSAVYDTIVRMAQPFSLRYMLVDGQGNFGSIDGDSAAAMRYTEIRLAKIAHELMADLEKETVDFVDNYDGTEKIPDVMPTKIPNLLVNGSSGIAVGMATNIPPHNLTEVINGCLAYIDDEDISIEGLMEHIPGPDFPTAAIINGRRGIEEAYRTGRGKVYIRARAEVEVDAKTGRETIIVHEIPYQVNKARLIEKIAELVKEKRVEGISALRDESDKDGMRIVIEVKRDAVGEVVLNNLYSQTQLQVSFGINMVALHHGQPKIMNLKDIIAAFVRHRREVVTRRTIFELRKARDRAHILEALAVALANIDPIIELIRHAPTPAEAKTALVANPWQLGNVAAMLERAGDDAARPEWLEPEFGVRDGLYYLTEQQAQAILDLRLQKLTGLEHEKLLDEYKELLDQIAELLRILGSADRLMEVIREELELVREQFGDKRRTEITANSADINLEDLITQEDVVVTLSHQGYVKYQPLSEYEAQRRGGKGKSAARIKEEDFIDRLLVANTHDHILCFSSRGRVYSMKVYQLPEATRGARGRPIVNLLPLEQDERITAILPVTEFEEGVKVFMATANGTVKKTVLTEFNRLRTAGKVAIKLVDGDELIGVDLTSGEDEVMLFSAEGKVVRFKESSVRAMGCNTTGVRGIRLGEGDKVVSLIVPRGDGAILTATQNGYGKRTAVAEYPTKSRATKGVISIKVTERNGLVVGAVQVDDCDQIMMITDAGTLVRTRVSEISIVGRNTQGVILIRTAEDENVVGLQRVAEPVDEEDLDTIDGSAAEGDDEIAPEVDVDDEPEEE
Description for DNA gyrase from E. coli: Inhibitory potencies were investigated utilizing the Inspiralis assay on streptavidin-coated 96-well microtiter plates. First, the plates were rehydrated with buffer (20 mM Tris-HCl with pH 7.6, 0.01% w/v BSA, 0.05% v/v Tween 20, 137 mM NaCl) and the biotinylated oligonucleotide was then immobilized. After washing off the unbound oligonucleotide, the enzyme test was performed. […] Reaction solutions were incubated at 37° C. for 30 min. After that, the TF buffer (50 mM NaOAc with pH 5.0, 50 mM NaCl and 50 mM MgCl2) was added to terminate the enzymatic reaction. After additional incubation for 30 min at rt, during which biotinoligonucleotide-plasmid triplex was formed, the unbound plasmid was washed off using TF buffer and SybrGOLD in T10 buffer (10 mM Tris HCl with pH 8.0 and 1 mM EDTA) was added. The fluorescence was measured with a microplate reader (BioTek Synergy H4, excitation: 485 nm, emission: 535 nm). Initial screening was done at 100 or 10 μM concentration of inhibitors. […] GraphPad Prism software was used to calculate the IC50 values. The result is given as the average value of three independent measurements.

What is called MIC is the smallest concentration in the dilution series that meets the test's criterion for growth inhibition. Usually IC50 stands for the concentration at which inhibition is half-maximal. The low end stands for inhibition by little substance, the high end for a need for much substance. In the case of `CNc1cc(F)cc2c1[nH]c1ccc(-c3cccc(CC(=O)O)c3)cc12` [Compound 1, 2-(3-(6-fluoro-8-(methylamino)-9H-carbazol-3-yl)phenyl)acetic acid], the MIC in [1] turned out to be 2 µg/mL (≈ 5.74 µM). In addition, half-maximal inhibition at DNA gyrase from E. coli (IC50) required 0.08 µM. In addition, the “antibacterial activity (in words)” value in experiment [2] is given as “promising antibacterial activity”.

`CNc1cc(F)cc2c1[nH]c1ccc(Nc3cccc(C(=O)O)c3)cc12` [Compound 6, 3-((6-fluoro-8-(methylamino)-9H-carbazol-3-yl)amino)benzoic acid]: the MIC is 16 µg/mL (≈ 45.8 µM) in experiment [3] (Pseudomonas aeruginosa MTCC 741, read-out: MIC); 1 µg/mL (≈ 2.86 µM) in experiment [4] (Klebsiella pneumonia MTCC 618, read-out: MIC); 2 µg/mL (≈ 5.72 µM) in [5] (Enterococcus faecium ATCC 51559 (VRE resistant), read-out: MIC); 1 µg/mL (≈ 2.86 µM) in [6]; 1 µg/mL (≈ 2.86 µM) in [7] (Enterococcus faecium ATCC 35667, read-out: MIC); 0.75 µg/mL (≈ 2.15 µM) in [8] (Bacillus subtilis MTCC 441, read-out: MIC). Besides, the MIC in [9] (Escherichia coli MTCC 443, read-out: MIC) was 32 µg/mL (≈ 91.6 µM); in [10] (read-out: MIC), 0.5 µg/mL (≈ 1.43 µM); in [11], 0.75 µg/mL (≈ 2.15 µM).

Turning to `CN[C@H](CC(C)C)C(=O)N[C@H]1C(=O)N[C@@H](CC(N)=O)C(=O)N[C@H]2C(=O)N[C@H]3C(=O)N[C@H](C(=O)N[C@H](C(=O)O)c4cc(O)cc(O)c4-c4cc3ccc4O)[C@H](O)c3ccc(c(Cl)c3)Oc3cc2cc(c3O[C@@H]2O[C@H](CO)[C@@H](O)[C@H](O)[C@H]2O[C@H]2C[C@](C)(N)[C@H](O)[C@H](C)O2)Oc2ccc(cc2Cl)[C@H]1O` [Vancomycin, reference compound], the MIC in [3] (Pseudomonas aeruginosa) is more than 128 µg/mL; in [4], more than 128 µg/mL; in [5] (Enterococcus faecium) it was more than 128 µg/mL; in experiment [7] (Enterococcus faecium), 0.5 µg/mL (≈ 0.345 µM); in experiment [8] (Bacillus subtilis) it was 0.5 µg/mL (≈ 0.345 µM); in experiment [9] (Escherichia coli), more than 128 µg/mL. It took 1 µg/mL (≈ 0.69 µM) to inhibit growth in experiment [10] (MIC).
